# Experimental data published in patent US10385054B2, “Pyrrolo[3,2-d]pyrimidine derivatives for the treatment of viral infections and other diseases” (Janssen Sciences Ireland Unlimited Company, priority 2013, dated 2019).
# Assays:
# Assay type in all cases: cell-based
# human TLR7 = target: T1, human TLR7 (Homo sapiens, UniProt Q9NYK1); assay: TLR7 cellular NFκB-luc reporter assay in transiently transfected HEK293 cells; conditions: lowest effective concentration, 6 hours incubation
# T1 construct: expressed in transfected cells; host or cells: HEK293
# T1 sequence (Q9NYK1 27-1049): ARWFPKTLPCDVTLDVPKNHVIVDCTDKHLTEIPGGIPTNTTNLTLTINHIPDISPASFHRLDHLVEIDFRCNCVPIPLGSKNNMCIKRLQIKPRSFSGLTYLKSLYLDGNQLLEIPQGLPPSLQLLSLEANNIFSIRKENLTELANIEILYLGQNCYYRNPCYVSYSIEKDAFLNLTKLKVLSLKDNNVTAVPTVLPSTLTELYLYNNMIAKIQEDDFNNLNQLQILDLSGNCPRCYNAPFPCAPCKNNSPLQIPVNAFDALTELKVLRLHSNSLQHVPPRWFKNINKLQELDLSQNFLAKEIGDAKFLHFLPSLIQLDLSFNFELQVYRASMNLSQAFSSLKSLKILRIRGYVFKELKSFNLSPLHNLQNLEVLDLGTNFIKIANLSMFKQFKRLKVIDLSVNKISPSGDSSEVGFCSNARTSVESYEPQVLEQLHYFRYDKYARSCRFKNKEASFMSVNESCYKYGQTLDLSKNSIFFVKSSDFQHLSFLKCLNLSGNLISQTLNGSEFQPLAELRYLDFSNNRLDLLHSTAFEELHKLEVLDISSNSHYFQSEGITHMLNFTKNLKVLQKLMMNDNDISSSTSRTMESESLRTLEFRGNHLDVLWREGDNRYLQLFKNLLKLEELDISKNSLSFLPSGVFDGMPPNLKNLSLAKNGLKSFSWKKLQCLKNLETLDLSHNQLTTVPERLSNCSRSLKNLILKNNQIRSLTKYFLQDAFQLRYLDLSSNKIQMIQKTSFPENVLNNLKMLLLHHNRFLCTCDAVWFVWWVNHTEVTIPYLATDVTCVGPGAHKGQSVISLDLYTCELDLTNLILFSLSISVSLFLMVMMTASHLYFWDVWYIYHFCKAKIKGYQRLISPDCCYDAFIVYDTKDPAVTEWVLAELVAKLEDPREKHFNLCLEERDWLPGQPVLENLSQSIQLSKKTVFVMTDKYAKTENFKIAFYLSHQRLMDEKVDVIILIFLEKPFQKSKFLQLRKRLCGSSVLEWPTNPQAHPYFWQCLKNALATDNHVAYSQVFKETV
# Experimental: (§1) The ability of compounds to activate human TLR7 and/or TLR8 was assessed in a cellular reporter assay using HEK293 cells transiently transfected with a TLR7 or TLR8 expression vector and NFκB-luc reporter construct.
# (§2) Briefly, HEK293 cells were grown in culture medium (DMEM supplemented with 10% FCS and 2 mM Glutamine). For transfection of cells in 15 cm dishes, cells were detached with Trypsin-EDTA, transfected with a mix of CMV-TLR7 or TLR8 plasmid (1700 ng), NFκB-luc plasmid (850 ng) and a transfection reagent and incubated for 48 h at 37° C. in a humidified 5% CO2 atmosphere. Transfected cells were then washed in PBS, detached with Trypsin-EDTA and resuspended in medium to a density of 1.25×10^5 cells/mL. Forty microliters of cells were then dispensed into each well in 384-well plates, where 200 nL of compound in 100% DMSO was already present. Following 6 hours incubation at 37° C., 5% CO2, the luciferase activity was determined by adding 15 μL of Steady Lite Plus substrate (Perkin Elmer) to each well and readout performed on a ViewLux ultraHTS microplate imager (Perkin Elmer). Dose response curves were generated from measurements performed in quadruplicates.
# [1] = test system: interferon-stimulated responsive elements (ISRE); assay: Activation of ISRE promoter elements in HEK-ISREluc cells by conditioned media from compound-treated PBMC; conditions: compound concentration applied to PBMCs overnight, supernatant on HEK-ISREluc cells 24 hours, read-out: HEK-ISRE luc (LEC)
# Experimental: The potential of compounds to induce IFN-I was also evaluated by measuring the activation of interferon-stimulated responsive elements (ISRE) by conditioned media from PBMC. The ISRE element of sequence […] (SEQ ID NO: 1) is highly responsive to the STAT1-STAT2-IRF9 transcription factor, activated upon binding of IFN-I to their receptor IFNAR (Clontech, PT3372-5W). The plasmid pISRE-Luc from Clontech (ref. 631913) contains 5 copies of this ISRE element, followed by the firefly luciferase ORF. A HEK293 cell line stably transfected with pISRE-Luc (HEK-ISREluc) was established to profile the conditioned PBMC cell culture media.
# Briefly, PBMCs were prepared from buffy coats of at least two donors using a standard Ficoll centrifugation protocol. Isolated PBMCs were resuspended in RPMI medium supplemented with 10% human AB serum and 2×10^5 cells/well were dispensed into 384-well plates containing compounds (70 μL total volume). After overnight incubation, 10 μL of supernatant was transferred to 384-well plates containing 5×10^3 HEK-ISREluc cells/well in 30 μL (plated the day before). Following 24 hours of incubation, activation of the ISRE elements was measured by assaying luciferase activity using 40 μL/well Steady Lite Plus substrate (Perkin Elmer) and measured with ViewLux ultraHTS microplate imager (Perkin Elmer). The stimulating activity of each compound on the HEK-ISREluc cells was reported as LEC value, defined as the compound concentration applied to the PBMCs resulting in a luciferase activity at least two fold above the standard deviation of the assay. The LEC in turn indicates the degree of ISRE activation on transfer of a defined amount of PBMC culture medium. Recombinant interferon α-2a (Roferon-A) was used as a standard control compound.
# human TLR8 = target: T2, human TLR8 (Homo sapiens, UniProt Q9NR97); assay: TLR8 cellular NFκB-luc reporter assay in transiently transfected HEK293 cells; conditions: lowest effective concentration, 6 hours incubation
# T2 construct: expressed in transfected cells; host or cells: HEK293
# T2 sequence (Q9NR97 27-1041): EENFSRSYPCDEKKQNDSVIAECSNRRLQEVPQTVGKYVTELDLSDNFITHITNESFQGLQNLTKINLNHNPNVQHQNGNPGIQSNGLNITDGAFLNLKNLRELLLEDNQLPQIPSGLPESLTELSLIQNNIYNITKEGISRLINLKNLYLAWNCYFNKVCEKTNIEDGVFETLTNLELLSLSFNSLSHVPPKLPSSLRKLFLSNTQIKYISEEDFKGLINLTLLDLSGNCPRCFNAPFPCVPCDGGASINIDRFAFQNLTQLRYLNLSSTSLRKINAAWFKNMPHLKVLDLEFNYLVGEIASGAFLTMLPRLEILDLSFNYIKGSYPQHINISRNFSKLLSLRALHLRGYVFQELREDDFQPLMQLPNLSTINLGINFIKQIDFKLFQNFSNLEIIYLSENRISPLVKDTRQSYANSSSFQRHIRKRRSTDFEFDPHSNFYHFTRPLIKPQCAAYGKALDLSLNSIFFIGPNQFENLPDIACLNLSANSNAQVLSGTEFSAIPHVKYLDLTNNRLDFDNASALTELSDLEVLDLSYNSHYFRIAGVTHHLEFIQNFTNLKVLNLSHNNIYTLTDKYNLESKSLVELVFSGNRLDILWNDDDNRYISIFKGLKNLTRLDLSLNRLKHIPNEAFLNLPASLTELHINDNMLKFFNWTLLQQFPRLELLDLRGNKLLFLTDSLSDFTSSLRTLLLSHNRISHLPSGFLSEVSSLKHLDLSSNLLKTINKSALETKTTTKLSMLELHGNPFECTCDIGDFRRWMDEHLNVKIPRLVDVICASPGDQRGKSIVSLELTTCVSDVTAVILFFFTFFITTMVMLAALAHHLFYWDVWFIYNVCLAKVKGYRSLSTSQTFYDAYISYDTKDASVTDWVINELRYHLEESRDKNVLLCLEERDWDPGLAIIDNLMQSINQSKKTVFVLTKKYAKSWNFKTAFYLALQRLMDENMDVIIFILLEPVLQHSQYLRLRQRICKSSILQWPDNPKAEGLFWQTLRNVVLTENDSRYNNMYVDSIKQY
# Experimental: as §1
# as §2, with “quadruplicates. Lowest effective concentrations (LEC) values, defined as the concentration that induces an effect which is at least two fold above the standard deviation of the assay, were determined for each compound.” for “quadruplicates.”
Compound,Human TLR 7 (LEC) (human TLR7),Human TLR 8 (LEC) (human TLR8),minimal effective concentration [1]
CCCCOc1nc(N)nc2ccn(Cc3ccccc3)c12 [Compound 1],0.6 µM,>25 µM,0.4 µM
COCCn1ccc2nc(N)nc(OCc3cc(C)on3)c21 [Compound 2],2.7 µM,>25 µM,0.5 µM
COc1ccccc1Cn1ccc2nc(N)nc(OCc3cc(C)on3)c21 [Compound 3],0.1 µM,>25 µM,0.03 µM
CCCCOc1nc(N)nc2ccn(Cc3ccccn3)c12 [Compound 4],1.4 µM,>25 µM,0.6 µM
Cc1cc(COc2nc(N)nc3ccn(Cc4ccccn4)c23)no1 [Compound 5],–,>25 µM,–
Cc1nc(COc2nc(N)nc3ccn(Cc4ccccn4)c23)no1 [Compound 6],–,>25 µM,–
COc1ccc(Cn2ccc3nc(N)nc(OCc4cc(C)on4)c32)nc1OC [Compound 7],0.08 µM,>25 µM,0.03 µM
COc1cccnc1Cn1ccc2nc(N)nc(OCc3cc(C)on3)c21 [Compound 8],0.03 µM,>25 µM,0.01 µM

# Further lines, with some results ahead:
Human TLR 7 (LEC) (human TLR7),Human TLR 8 (LEC) (human TLR8),Compound,minimal effective concentration [1]
–,>25 µM,COc1cccnc1Cn1ccc2nc(N)nc(OCc3ncc(C)o3)c21 [Compound 9],–
–,>25 µM,Cc1cnc(COc2nc(N)nc3ccn(Cc4ccccn4)c23)s1 [Compound 10],–
–,>25 µM,Cc1cnc(COc2nc(N)nc3ccn(Cc4ccccn4)c23)o1 [Compound 11],–
